We go through 16 compounds from patent publication US20240166660A1, “KRAS G12C INHIBITORS” (BeiGene Switzerland GmbH, priority 2021, published 2024).

In the test the target is KRAS (aa 1-169) G12C, C51S, C80L, C118S (Homo sapiens (Human), UniProt P01116, C118S/C51S/C80L/G12C). Nature of the test: Biochemical functional assay: SOS1-mediated nucleotide exchange of GDP-loaded KRAS G12C, binding to GST-cRaf RBD, FRET readout. To be noted: 3 hrs pre-incubation with compound at 24° C., SOS1, GTPyS, inhibition of nucleotide exchange. The method in brief:
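GDP-loaded His-tagged KRAS construct preincubated with compound 3 h at 24° C in 25 mM HEPES pH7.5, 10 mM MgCl2, 0.01% Triton X-100; SOS1 (aa 564-1049), GTPγS and GST-cRaf RBD added for 3 h, then anti-His Tb cryptate/anti-GST XL665 for 3 h. HTRF 665/620 ratio; IC50 by four-parameter logistic fit.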

By IC50 is commonly meant the midpoint of a concentration-inhibition curve.

Sequence of KRAS (aa 1-169) G12C, C51S, C80L, C118S (P01116 other isoform, or with tags, fused parts or gaps G12C/C51S/C80L/C118S): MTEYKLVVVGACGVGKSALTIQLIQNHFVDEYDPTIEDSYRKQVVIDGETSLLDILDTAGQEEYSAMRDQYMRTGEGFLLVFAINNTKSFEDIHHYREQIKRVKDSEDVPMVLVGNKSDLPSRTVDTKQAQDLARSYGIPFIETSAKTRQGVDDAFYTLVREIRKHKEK

As to `C=CC(=O)N1CCN(c2nc(OC[C@@H]3CCCN3C)nc3cc(-c4c(F)cccc4Cl)c4ccoc4c23)CC1` [Compound B57, 1-(4-(4-(2-chloro-6-fluorophenyl)-7-(((S)-1-methylpyrrolidin-2-yl)methoxy)furo[2,3-f]quinazolin-9-yl)piperazin-1-yl)prop-2-en-1-one], the IC50 amounted to 1020 nM.
Take `C=CC(=O)N1CCN(c2nc(OC[C@@H]3CCCN3C)nc3cc(-c4ccccc4C4CC4)c4ccoc4c23)CC1` [Compound B58, (S)-1-(4-(4-(2-cyclopropylphenyl)-7-((1-methylpyrrolidin-2-yl)methoxy)furo[2,3-f]quinazolin-9-yl)piperazin-1-yl)prop-2-en-1-one]: the IC50 came out at 958 nM.
The same measure for `C=CC(=O)N1CCN(c2nc(OC[C@@H]3CCCN3C)nc3cc(-c4c(Cl)cccc4Cl)c4ccoc4c23)CC1` [Compound B59, (S)-1-(4-(4-(2,6-dichlorophenyl)-7-((1-methylpyrrolidin-2-yl)methoxy)furo[2,3-f]quinazolin-9-yl)piperazin-1-yl)prop-2-en-1-one]: 745 nM.
`C=C(F)C(=O)N1CCN(c2nc(OC[C@]3(C)CCCN3C)nc3cc(-c4cccc5cccc(Cl)c45)c4c(c23)OCCC4)C[C@@H]1CC#N` [Compound B60, 2-((S)-4-(5-(8-chloronaphthalen-1-yl)-8-(((S)-1,2-dimethylpyrrolidin-2-yl)methoxy)-3,4-dihydro-2H-pyrano[2,3-f]quinazolin-10-yl)-1-(2-fluoroacryloyl)piperazin-2-yl)acetonitrile]: the IC50 came out at 252 nM.
Next, `C=C(F)C(=O)N1CCN(c2nc(O[C@@H]3CCCC[C@H]3N(C)C)nc3cc(-c4cccc5cccc(Cl)c45)c4c(c23)OCCC4)C[C@@H]1CC#N` [Compound B61, 2-((S)-4-(5-(8-chloronaphthalen-1-yl)-8-(((1R,2R)-2-(dimethylamino)cyclohexyl)oxy)-3,4-dihydro-2H-pyrano[2,3-f]quinazolin-10-yl)-1-(2-fluoroacryloyl)piperazin-2-yl)acetonitrile]: 186 nM; `C=CC(=O)N1C[C@H](C)N(c2nc(OC[C@@H]3CCCN3C)nc3cc(-c4c(Cl)c(C)cc5[nH]ncc45)c4ccoc4c23)C[C@H]1C` [Compound B62, 1-((2R,5S)-4-(4-(5-chloro-6-methyl-1H-indazol-4-yl)-7-(((S)-1-methylpyrrolidin-2-yl)methoxy)furo[2,3-f]quinazolin-9-yl)-2,5-dimethylpiperazin-1-yl)prop-2-en-1-one]: 642 nM; `C=CC(=O)N1CCN(c2nc(OC[C@@H]3CCCN3C)nc3cc(-c4cccc5cccc(Cl)c45)c4c(c23)OCCC4)[C@@H](C)C1` [Compound B63, 1-((S)-4-(5-(8-chloronaphthalen-1-yl)-8-(((S)-1-methylpyrrolidin-2-yl)methoxy)-3,4-dihydro-2H-pyrano[2,3-f]quinazolin-10-yl)-3-methylpiperazin-1-yl)prop-2-en-1-one]: 148 nM.
On to `C=C(F)C(=O)N1CCN(c2nc(OC3CN(C)C3)nc3cc(-c4cccc5cccc(Cl)c45)c4c(c23)OCCC4)C[C@@H]1CC#N` [Compound B64, (S)-2-(4-(5-(8-chloronaphthalen-1-yl)-8-((1-methylazetidin-3-yl)oxy)-3,4-dihydro-2H-pyrano[2,3-f]quinazolin-10-yl)-1-(2-fluoroacryloyl)piperazin-2-yl)acetonitrile], for which the IC50 was 247 nM.
As to `C=C(F)C(=O)N1CCN(c2nc(OC[C@@H]3C[C@@H](F)CN3C)nc3cc(-c4cccc5cccc(Cl)c45)c4ccoc4c23)C[C@@H]1CC#N` [Compound B65, 2-((S)-4-(4-(8-chloronaphthalen-1-yl)-7-(((2S,4R)-4-fluoro-1-methylpyrrolidin-2-yl)methoxy)furo[2,3-f]quinazolin-9-yl)-1-(2-fluoroacryloyl)piperazin-2-yl)acetonitrile], the IC50 came out at 30 nM.
`C=C(F)C(=O)N1CCN(c2nc(OC[C@@H]3CCCN3C)nc3cc(-c4cccc5cccc(Cl)c45)c4c(c23)OCCC4)C[C@@H]1CC#N` [Compound B66, 2-((S)-4-(5-(8-chloronaphthalen-1-yl)-8-(((S)-1-methylpyrrolidin-2-yl)methoxy)-3,4-dihydro-2H-pyrano[2,3-f]quinazolin-10-yl)-1-(2-fluoroacryloyl)piperazin-2-yl)acetonitrile]: the IC50 turned out to be 9.3 nM.
In the case of `C=C(F)C(=O)N1CCN(c2nc(OC3COCC3N(C)C)nc3cc(-c4cccc5cccc(Cl)c45)c4c(c23)OCCC4)C[C@@H]1CC#N` (stereo partly drawn) [Compound B69, 2-((2S)-4-(5-(8-chloronaphthalen-1-yl)-8-((4-(dimethylamino)tetrahydrofuran-3-yl)oxy)-3,4-dihydro-2H-pyrano[2,3-f]quinazolin-10-yl)-1-(2-fluoroacryloyl)piperazin-2-yl)acetonitrile], the IC50 worked out at 1220 nM.
Regarding `C=C(F)C(=O)N1CCN(c2nc(OC[C@@H]3CCCN3C)nc3cc(-c4cccc5ccc(Cl)cc45)c4c(c23)OCCC4)C[C@@H]1CC#N` [Compound B70, 2-((S)-4-(5-(7-chloronaphthalen-1-yl)-8-(((S)-1-methylpyrrolidin-2-yl)methoxy)-3,4-dihydro-2H-pyrano[2,3-f]quinazolin-10-yl)-1-(2-fluoroacryloyl)piperazin-2-yl)acetonitrile], the IC50 came out at 35 nM.
As to `C=C(F)C(=O)N1CCN(c2nc(O[C@@H]3CCN(C)C3)nc3cc(-c4cccc5cccc(Cl)c45)c4c(c23)OCCC4)C[C@@H]1CC#N` [Compound B71, 2-((S)-4-(5-(8-chloronaphthalen-1-yl)-8-(((R)-1-methylpyrrolidin-3-yl)oxy)-3,4-dihydro-2H-pyrano[2,3-f]quinazolin-10-yl)-1-(2-fluoroacryloyl)piperazin-2-yl)acetonitrile], the IC50 worked out at 304 nM.
For `C=C(F)C(=O)N1CCN(c2nc(OC[C@@H]3COCCN3C)nc3cc(-c4cccc5cccc(Cl)c45)c4c(c23)OCCC4)C[C@@H]1CC#N` [Compound B72, 2-((S)-4-(5-(8-chloronaphthalen-1-yl)-8-(((S)-4-methylmorpholin-3-yl)methoxy)-3,4-dihydro-2H-pyrano[2,3-f]quinazolin-10-yl)-1-(2-fluoroacryloyl)piperazin-2-yl)acetonitrile], the IC50 came out at 194 nM.
For the compound `C=C(F)C(=O)N1CCN(c2nc(OC[C@@H]3C[C@H]4C[C@H]4N3C)nc3cc(-c4cccc5cccc(Cl)c45)c4c(c23)OCCC4)C[C@@H]1CC#N` [Compound B73, 2-((S)-4-(5-(8-chloronaphthalen-1-yl)-8-(((1R,3S,5R)-2-methyl-2-azabicyclo[3.1.0]hexan-3-yl)methoxy)-3,4-dihydro-2H-pyrano[2,3-f]quinazolin-10-yl)-1-(2-fluoroacryloyl)piperazin-2-yl)acetonitrile], the half-maximal inhibitory concentration (IC50) was 50 nM.
As to `C=C(F)C(=O)N1CCN(c2nc(N3CCCC(N(C)C)C3)nc3cc(-c4cccc5cccc(Cl)c45)c4c(c23)OCCC4)C[C@@H]1CC#N` (stereo partly drawn) [Compound B74, 2-((2S)-4-(5-(8-chloronaphthalen-1-yl)-8-(3-(dimethylamino)piperidin-1-yl)-3,4-dihydro-2H-pyrano[2,3-f]quinazolin-10-yl)-1-(2-fluoroacryloyl)piperazin-2-yl)acetonitrile], the IC50 stood at 837 nM.
